Measured values published in patent publication US9682990B2, “Alcohol-, diol-, and carbohydrate-substituted indenoisoquinolines as topoisomerase I inhibitors” (Purdue Research Foundation, priority 2011, dated 2017).
Where two headings read alike, the source gives them in different places. Marks after values point to notes of the source that are not given here.

Columns and labels:
HCT-116 (Colon) = assay: NCI Developmental Therapeutics antiproliferative assay, HCT-116; format: cell-based, human
Protocol: (§1) Biological Results. The indenoisoquinoline analogues were tested for antiproliferative activity in the National Cancer Institute's Developmental Therapeutics Assay against cell lines derived from approximately 60 different human tumors.

[1] = tested on: cell lines derived from approximately 60 different human tumors; assay: NCI initial one-dose screening assay; format: cell-based; settings: percentage of cell growth, one-dose assay at 10 μM
[2] = tested on: all human cancer cell lines successfully tested; assay: NCI-60 cell line assay, mean-graph midpoint; format: cell-based; settings: for MGM (mean graph midpoint for growth inhibition): all human cancer cell lines tested, 10^−8 to 10^−4 molar
Protocol: as §1, with “tumors. […] The cytotoxicities of the compounds to cultured cancer cells were measured in the National Cancer Institute's 60 cell line assay (a.k.a. NCI-60).” for “tumors.”

SF-539 (CNS) = assay: NCI Developmental Therapeutics antiproliferative assay, SF-539; format: cell-based, human
Protocol: (§2) Biological Results. The indenoisoquinoline analogues were tested for antiproliferative activity in the National Cancer Institute's Developmental Therapeutics Assay against cell lines derived from approximately 60 different human tumors. […] Results are reported in Table 2 as GI50 values for selected cell lines, and overall antiproliferative potency is quantified as a mean-graph midpoint (MGM).

HOP-62 (Lung) = assay: NCI Developmental Therapeutics antiproliferative assay, HOP-62; format: cell-based, human
Protocol: as §1

OVCAR-3 (Ovarian) = assay: NCI Developmental Therapeutics antiproliferative assay, OVCAR-3; format: cell-based, human
Protocol: as §2

MCF7 (Breast) = assay: NCI Developmental Therapeutics antiproliferative assay, MCF7; format: cell-based, human
Protocol: as §2

DU-145 (Prostate) = assay: NCI Developmental Therapeutics antiproliferative assay, DU-145; format: cell-based, human
Protocol: as §1

SN12C (Renal) = assay: NCI Developmental Therapeutics antiproliferative assay, SN12C; format: cell-based, human
Protocol: as §2

UACC-62 (Melanoma) = assay: NCI Developmental Therapeutics antiproliferative assay, UACC-62; format: cell-based, human
Protocol: as §1

[3] = Homo sapiens, HCT-116, 50% growth inhibition, read-out: Cytotoxicity (GI50) Colon HCT-116
[4] = Homo sapiens, SF-539, 50% growth inhibition, read-out: Cytotoxicity (GI50) CNS SF-539
[5] = Homo sapiens, HOP-62, 50% growth inhibition, read-out: Cytotoxicity (GI50) Lung HOP-62
[6] = Homo sapiens, OVCAR-3, 50% growth inhibition, read-out: Cytotoxicity (GI50) Ovarian OVCAR-3
[7] = Homo sapiens, MCF7, 50% growth inhibition, read-out: Cytotoxicity (GI50) Breast MCF7
[8] = Homo sapiens, DU-145, 50% growth inhibition, read-out: Cytotoxicity (GI50) Prostate DU-145
[9] = Homo sapiens, SN12C, 50% growth inhibition, read-out: Cytotoxicity (GI50) Renal SN12C
[10] = Homo sapiens, UACC-62, 50% growth inhibition, read-out: Cytotoxicity (GI50) Melanoma UACC-62

O=C1c2ccccc2-c2c1c1ccccc1c(=O)n2C[C@H](O)[C@H](O)[C@H](O)[C@H](O)CO [Compound 17h, (2′S,3′S,4′R,5′R)-5,6-Dihydro-6-(2′,3′,4′,5′,6′-pentahydroxyhexyl)-5,11-dioxo-11H-indeno[1,2-c]isoquinoline]
GI50 (HCT-116 (Colon)): 4.17 µM | Growth Percent [1]: 49.31% | MGM (mean graph midpoint for growth inhibition) [2]: 5.75 µM | GI50 (SF-539 (CNS)): 5.75 µM | GI50 (HOP-62 (Lung)): 3.23 µM | GI50 (OVCAR-3 (Ovarian)): 13.8 µM | GI50 (MCF7 (Breast)): 1.78 µM | GI50 (DU-145 (Prostate)): 3.31 µM | GI50 (SN12C (Renal)): 3.39 µM | GI50 (UACC-62 (Melanoma)): 2.95 µM

O=C1c2ccccc2-c2c1c1ccccc1c(=O)n2C[C@@H](O)[C@@H](O)[C@H](O)[C@H](O)CO [Compound 17f, (2′R, 3′R, 4′R, 5′R)-5,6-Dihydro-6-(2′,3′,4′,5′,6′-pentahydroxyhexyl)-5,11-dioxo-11H-indeno[1,2-c]isoquinoline]
Growth Percent [1]: 69.35%

O=C1c2ccccc2-c2c1c1ccccc1c(=O)n2C[C@H](O)[C@@H](O)[C@H](O)CO [Compound 17d, (2′S,3′R,4′R)-5,6-Dihydro-6-(2′,3′,4′,5′-tetrahydroxypentyl)-5,11-dioxo-11H-indeno[1,2-c]isoquinoline]
Growth Percent [1]: 34.91% | MGM (mean graph midpoint for growth inhibition) [2]: 4.07 µM | GI50 (SF-539 (CNS)): 7.94 µM | GI50 (HOP-62 (Lung)): 3.23 µM | GI50 (OVCAR-3 (Ovarian)): 24 µM | GI50 (MCF7 (Breast)): 1.74 µM | GI50 (SN12C (Renal)): 2.24 µM

O=C1c2ccccc2-c2c1c1ccc([N+](=O)[O-])cc1c(=O)n2C[C@H](O)CO [Compound 30, (2′S)-5,6-Dihydro-6-(2′,3′-dihydroxypropyl)-3-nitro-5,11-dioxo-11H-indeno[1,2-c]isoquinoline]
MGM (mean graph midpoint for growth inhibition) [2]: 0.156 ± 0.061 µM | GI50 ([2]; read-out: MGM GI50): 0.156 µM

O=C1c2ccccc2-c2c1c1ccc([N+](=O)[O-])cc1c(=O)n2C[C@H](O)[C@@H](O)[C@H](O)[C@H](O)CO [Compound 19, (2′S,3′R,4′R,5′R)-5,6-Dihydro-6-(2′,3′,4′,5′,6′-pentahydroxyhexyl)-3-nitro-5,11-dioxo-11H-indeno[1,2-c]isoquinoline]
GI50 (HCT-116 (Colon); [3]): 5.08 µM | Growth Percent [1]: 58.05% | MGM (mean graph midpoint for growth inhibition) [2]: 4.60 ± 0.53 µM | GI50 (SF-539 (CNS); [4]): 2.61 µM | GI50 (HOP-62 (Lung); [5]): 7.35 µM | GI50 (OVCAR-3 (Ovarian); [6]): 4.26 µM | GI50 (MCF7 (Breast); [7]): 0.88 µM | GI50 (DU-145 (Prostate); [8]): 4.76 µM | GI50 (SN12C (Renal); [9]): 17.7 µM | GI50 (UACC-62 (Melanoma); [10]): 2.98 µM

(1′RS)-5,6-Dihydro-6-(3′-hydroxy-2′-methylethyl)-5,11-dioxo-11H-indeno[1,2-c]isoquinoline [Compound 22c]
GI50 (HCT-116 (Colon)): 15.9 µM | MGM (mean graph midpoint for growth inhibition) [2]: 15.6 ± 2.15 µM | GI50 (SF-539 (CNS)): 14.4 µM | GI50 (HOP-62 (Lung)): 17.6 µM | GI50 (OVCAR-3 (Ovarian)): 25.7 µM | GI50 (MCF7 (Breast)): 34.4 µM | GI50 (DU-145 (Prostate)): 23.7 µM | GI50 (SN12C (Renal)): 37.1 µM | GI50 (UACC-62 (Melanoma)): 11.7 µM

O=C(CO)Cn1c2c(c3ccccc3c1=O)C(=O)c1ccccc1-2 [Compound 25, 5,6-Dihydro-6-(3′-hydroxy-2′-oxopropyl)-5,11-dioxo-11H-indeno[1,2-c]isoquinoline]
GI50 (HCT-116 (Colon); [3]): 30.9 µM | Growth Percent [1]: 72.36% | MGM (mean graph midpoint for growth inhibition) [2]: 20.9 µM | GI50 (SF-539 (CNS); [4]): 20 µM | GI50 (HOP-62 (Lung); [5]): 40.7 µM | GI50 (OVCAR-3 (Ovarian); [6]): 5.23 µM | GI50 (MCF7 (Breast); [7]): 32.3 µM | GI50 (DU-145 (Prostate); [8]): 17.8 µM | GI50 (SN12C (Renal); [9]): 81.3 µM | GI50 (UACC-62 (Melanoma); [10]): 58.9 µM

C[C@@H](O)Cn1c2c(c3ccccc3c1=O)C(=O)c1ccccc1-2 [Compound 27a, (2′R)-5,6-Dihydro-6-(2′-hydroxypropyl)-5,11-dioxo-11H-indeno[1,2-c]isoquinoline]
GI50 (HCT-116 (Colon)): 5.52 µM | Growth Percent [1]: 55.23% | MGM (mean graph midpoint for growth inhibition) [2]: 10.2 µM | GI50 (SF-539 (CNS)): 6.31 µM | GI50 (HOP-62 (Lung)): 3.39 µM | GI50 (OVCAR-3 (Ovarian)): 21.4 µM | GI50 (MCF7 (Breast)): 3.23 µM | GI50 (DU-145 (Prostate)): 8.32 µM | GI50 (SN12C (Renal)): 9.33 µM | GI50 (UACC-62 (Melanoma)): 10.2 µM

O=C1c2ccccc2-c2c1c1ccccc1c(=O)n2C[C@H](O)[C@@H](O)[C@H](O)[C@H](O)CO [Compound 17c, (2′S,3′R,4′R,5′R)-5,6-Dihydro-6-(2′,3′,4′,5′,6′-pentahydroxyhexyl)-5,11-dioxo-11H-indeno[1,2-c]isoquinoline]
Growth Percent [1]: 97.16^e %
